From patent US20090054392A1, “NAPHTHYLPYRIMIDINE, NAPHTHYLPYRAZINE AND NAPHTHYLPYRIDAZINE ANALOGS AND THEIR USE AS AGONISTS OF THE WNT-BETA-CATENIN CELLULAR MESSAGING SYSTEM” (Wyeth, priority 2007, published 2009)
Where two headings read alike, the source gives them in different places.

Test system: Dkk1-LRP5-TCF-Luciferase
Test: Functional Dkk1-LRP5-TCF-Luciferase Assay in U2OS Cells
Conditions: for fold induction at 2 µM / fold induction at 20 µM / EC50: Homo sapiens, U2OS; for A = MAX FOLD Induction/DMSO CONTROL: maximum fold induction over DMSO control
[1] = read-out: B = TCF ACTIVITY/DMSO CONTROL Fold induction @ 2.0 uM, 2.0 uM compound
[2] = read-out: C = TCF ACTIVITY/DMSO CONTROL Fold induction @ 20.0 uM, 20.0 uM compound

Experimental: Biological Evaluation—Functional Dkk1-LRP5-TCF-Luciferase Assay in U2OS Cells
Frozen U2OS-Dkk1-HTS Reporter cells generation: U2OS Human Bone derived cells (Osteosarcoma) are grown in McCoy's 5A Medium (Modified), with L -glutamine (GIBCO Cat No. 16600-082)+1% Pen-Strep+5% FBS) plated at 1×10^7 cells/T175 cm flask. The next day, the cells are co-transfected overnight with the following plasmids: (a) Test reporter (16×TCF-TK-FireFly-Luci), (b) Internal Control Reporter (TK-Renilla-Luci), (c) Wnt3a and (d) Dkk1. GIBCO's Lipofectamine 2000 and OptiMEM are used for the transfection. After a minimum of 4 hr of transfection at 37° C., the plasmid-transfected cells are trypsinized, counted, and suspended in freezing medium (95% FBS+5% DMSO). The reporter cells are frozen at 1×10^7/ml concentrations, aliquoted into 0.5 ml or 2.5 ml/tube and stored at 70° C.
The following day, test compounds are added under HTS setup by Plate Track into 384 well plates (white, TC treated, Falcon plate) such that the final concentration of the compounds in 20 μL/well cell will be 5 μg/ml (final concentration of DMSO=0.25% and final compound concentration=20 μM). Vials of frozen reporter cells are thawed by warming the vial in a 37° C. water bath for 60-120 seconds with some shaking until the cells formed a suspension. The thawed cells are transferred into a cold 50 ml (or larger) tube and mixed well by gentle pipetting. The appropriate amount of cold Phenol Red Free RPMI medium-1640 (GIBCO, Cat #11835-030) with L-glutamine is added, both with ˜5% FBS (GIBCO-BRL, Cat. #16000-044), so that 20 μl of the final cell suspension will contain ˜5,000 cells. The cell dilution is done such that the final concentration of FBS is ˜5%.
Diluted cells (20 μl) are added into each well in a 384 well plate. The plate is incubated at 37° C. under 5% CO2 for ˜20 h. Bright-Glo substrate, 2.5 μl/well is added, and the Fire Fly Luciferase is measured using VLUX (60 second exposure) immediately after the substrate is added. Test compounds are dissolved in DMSO (100%) and added to specified wells. Raw luciferase signal data obtained as relative luminescence units (RLUs) for the test compounds are normalized to the signal of the mean of the sample reporter cell plate with DMSO.

With `CCN(CC)C(=O)N1CCC(N(C)c2nccc(-c3ccc4ccccc4c3)n2)CC1` [N,N-diethyl-4-{methyl[4-(2-naphthyl)pyrimidin-2-yl]amino}piperidine-1-carboxamide] the fold induction at 2 µM [1] was 0.86 and the fold induction at 20 µM [2] was 1.32.

With `O=C(NCCC1CCN(c2nccc(-c3ccc4ccccc4c3)n2)CC1)C(F)(F)F` [2,2,2-trifluoro-N-(2-{1-[4-(2-naphthyl)pyrimidin-2-yl]piperidin-4-yl}ethyl)acetamide] the fold induction at 2 µM [1] was 1.77 and the fold induction at 20 µM [2] was 1.04.

For `O=C1CCCCN1C[C@H]1CCN(c2nccc(-c3ccc4ccccc4c3)n2)C1` [1-({(3S)-1-[4-(2-naphthyl)pyrimidin-2-yl]pyrrolidin-3-yl}methyl)piperidin-2-one], the fold induction at 2 µM [1] was 1.07, the fold induction at 20 µM [2] was 2.45 and the “A = MAX FOLD Induction/DMSO CONTROL” value was 2.000 fold.

`O=CNCC1CCN(c2nccc(-c3ccc4ccccc4c3)n2)C1` (centres unmarked) [N-({1-[4-(2-naphthyl)pyrimidin-2-yl]pyrrolidin-3-yl}methyl)formamide] gave a fold induction at 2 µM [1] of 1.09 and a fold induction at 20 µM [2] of 1.68.

Molecule `NCC1(CN)C[C@@H]2C[C@H]1CN2c1nccc(-c2ccc3ccccc3c2)n1` [{(1S,4R)-2-[4-(2-naphthyl)pyrimidin-2-yl]-2-azabicyclo[2.2.1]heptane-5,5-diyl}dimethanamine] has a fold induction at 2 µM [1] of 1.2.

`CC(C)(C)OC(=O)N[C@H](C1CCN(c2nccc(-c3ccc4ccccc4c3)n2)CC1)C(C)(C)O` [tert-butyl ((1R)-2-hydroxy-2-methyl-1-{1-[4-(2-naphthyl)pyrimidin-2-yl]piperidin-4-yl}propyl)carbamate] was tested, and the fold induction at 2 µM [1] was 1.79.

In the case of `CN(C)[C@H]1CCN([C@@H]2CCN(c3nccc(-c4ccc5ccccc5c4)n3)C2)C1` [(3S,3′R)-N,N-dimethyl-1′-[4-(2-naphthyl)pyrimidin-2-yl]-1,3′-bipyrrolidin-3-amine], the EC50 is reported as 1110 nM, the fold induction at 2 µM [1] is reported as 2.64 and the “A = MAX FOLD Induction/DMSO CONTROL” value is reported as 3.175 fold.

Molecule `O[C@@H]1CCCN([C@@H]2CCN(c3nccc(-c4ccc5ccccc5c4)n3)C2)C1` [(3R)-1-{(3R)-1-[4-(2-naphthyl)pyrimidin-2-yl]pyrrolidin-3-yl}piperidin-3-ol] has an EC50 of 2200 nM.

`NC(=O)N1CCC(CNc2nccc(-c3ccc4ccccc4c3)n2)CC1` [4-({[4-(2-naphthyl)pyrimidin-2-yl]amino}methyl)piperidine-1-carboxamide] showed a fold induction at 2 µM [1] of 0.88 and a fold induction at 20 µM [2] of 1.58.

Molecule `c1cnc(NCC2CCN(c3nccc(-c4ccc5ccccc5c4)n3)CC2)nc1` [N-({1-[4-(2-naphthyl)pyrimidin-2-yl]piperidin-4-yl}methyl)pyrimidin-2-amine] has a fold induction at 2 µM [1] of 1.28 and a fold induction at 20 µM [2] of 1.48.

`CC(C)(C)Nc1nccc(-c2ccc3ccccc3c2)n1` [N-(tert-butyl)-4-(2-naphthyl)pyrimidin-2-amine] was tested, and the fold induction at 2 µM [1] was 1.75.

Molecule `CC(C)(C)OC(=O)/N=C(/NCC1CCN(c2nccc(-c3ccc4ccccc4c3)n2)CC1)NC(=O)OC(C)(C)C` [di-tert-butyl {(Z)-[({1-[4-(2-naphthyl)pyrimidin-2-yl]piperidin-4-yl}methyl)amino]methylylidene}biscarbamate] has a fold induction at 2 µM [1] of 0.94 and a fold induction at 20 µM [2] of 1.35.

Work on `Cc1ccc(S(=O)(=O)NCC2CCN(c3nccc(-c4ccc5ccccc5c4)n3)CC2)cc1` [4-methyl-N-({1-[4-(2-naphthyl)pyrimidin-2-yl]piperidin-4-yl}methyl)benzenesulfonamide] yielded a fold induction at 2 µM [1] of 1.07 and a fold induction at 20 µM [2] of 0.41.

For `O=CN1CCCN(c2nccc(-c3ccc4ccccc4c3)n2)CC1` [4-[4-(2-naphthyl)pyrimidin-2-yl]-1,4-diazepane-1-carbaldehyde], the fold induction at 2 µM [1] was 0.87 and the fold induction at 20 µM [2] was 1.88.

Molecule `CN(C)C(=O)[C@H]1CCCN1c1nccc(-c2ccc3ccccc3c2)n1` [N,N-dimethyl-1-[4-(2-naphthyl)pyrimidin-2-yl]-D-prolinamide] has a fold induction at 2 µM [1] of 1.02 and a fold induction at 20 µM [2] of 1.2.

`NC[C@@H]1C[C@@H]2C[C@H]1CN2c1nccc(-c2ccc3ccccc3c2)n1` [1-{(1R,4R,5R)-2-[4-(2-naphthyl)pyrimidin-2-yl]-2-azabicyclo[2.2.1]hept-5-yl}methanamine] gave a fold induction at 2 µM [1] of 1.4.

`COC(=O)C(N)C1CCN(c2nccc(-c3ccc4ccccc4c3)n2)CC1` (centres unmarked) [methyl amino{1-[4-(2-naphthyl)pyrimidin-2-yl]piperidin-4-yl}acetate] was tested, and the EC50 was 3300 nM, the fold induction at 20 µM [2] was 0.03 and the “A = MAX FOLD Induction/DMSO CONTROL” value was 2.360 fold.

`CC(C)(C)OC(=O)N1CCN(c2nccc(-c3ccc4ccccc4c3)n2)CC1` [tert-butyl 4-[4-(2-naphthyl)pyrimidin-2-yl]piperazine-1-carboxylate] showed a fold induction at 2 µM [1] of 0.98 and a fold induction at 20 µM [2] of 1.94.

`NC[C@H]1CC[C@@H](Oc2nccc(-c3ccc4ccccc4c3)n2)CC1` [1-{cis-4-[(4-naphthalen-2-ylpyrimidin-2-yl)oxy]cyclohexyl}methanamine] showed a fold induction at 2 µM [1] of 4.2.

In the case of `c1ccc2cc(-c3ccnc(N4CC[C@@H](N5CCCCCC5)C4)n3)ccc2c1` [1-{(3R)-1-[4-(2-naphthyl)pyrimidin-2-yl]pyrrolidin-3-yl}azepane], the fold induction at 2 µM [1] is reported as 1.25 and the fold induction at 20 µM [2] is reported as 1.3.

For `CC(C)(C)OC(=O)N1CC[C@H](CNc2nccc(-c3ccc4ccccc4c3)n2)C1` [tert-butyl (3R)-3-({[4-(2-naphthyl)pyrimidin-2-yl]amino}methyl)pyrrolidine-1-carboxylate], the fold induction at 2 µM [1] was 1.83.

Work on `O=Cc1ccc2cc(-c3ccnc(N4CCC(CNC(=O)C(F)(F)F)CC4)n3)ccc2c1` [2,2,2-trifluoro-N-({1-[4-(6-formyl-2-naphthyl)pyrimidin-2-yl]piperidin-4-yl}methyl)acetamide] yielded a fold induction at 2 µM [1] of 1.11 and a fold induction at 20 µM [2] of 0.04.

In the case of `NCC1CN(c2nccc(-c3ccc4ccccc4c3)n2)C1` [1-{1-[4-(2-naphthyl)pyrimidin-2-yl]azetidin-3-yl}methanamine], the EC50 is reported as 22900 nM, the fold induction at 2 µM [1] is reported as 2.56 and the fold induction at 20 µM [2] is reported as 0.71. The “A = MAX FOLD Induction/DMSO CONTROL” value was 3.080 fold.

`CC(C)NC(=O)NCCC1CCN(c2nccc(-c3ccc4ccccc4c3)n2)CC1` [N-isopropyl-N′-(2-{1-[4-(2-naphthyl)pyrimidin-2-yl]piperidin-4-yl}ethyl)urea] gave a fold induction at 2 µM [1] of 1.46 and a fold induction at 20 µM [2] of 1.58.

For `OC[C@@H]1CCCN(c2nccc(-c3ccc4ccccc4c3)n2)C1` [{(3R)-1-[4-(2-naphthyl)pyrimidin-2-yl]piperidin-3-yl}methanol], the fold induction at 2 µM [1] was 1.98, the fold induction at 20 µM [2] was 1.08 and the “A = MAX FOLD Induction/DMSO CONTROL” value was 1.800 fold.

`CC(=O)NCC1CCN(c2nccc(-c3ccc4ccccc4c3)n2)C1` (centres unmarked) [N-({1-[4-(2-naphthyl)pyrimidin-2-yl]pyrrolidin-3-yl}methyl)acetamide] was tested, and the fold induction at 2 µM [1] was 0.95 and the fold induction at 20 µM [2] was 1.5.

For `CN(C)C(=O)N1CCC(Nc2nccc(-c3ccc4ccccc4c3)n2)CC1` [N,N-dimethyl-4-{[4-(2-naphthyl)pyrimidin-2-yl]amino}piperidine-1-carboxamide], the EC50 was 640 nM, the fold induction at 2 µM [1] was 1.13 and the fold induction at 20 µM [2] was 1.58. The “A = MAX FOLD Induction/DMSO CONTROL” value was 1.810 fold.

`O=C(N[C@H]1CCN(c2nccc(-c3ccc4ccccc4c3)n2)C1)N1CCOCC1` [N-{(3S)-1-[4-(2-naphthyl)pyrimidin-2-yl]pyrrolidin-3-yl}morpholine-4-carboxamide] gave a fold induction at 2 µM [1] of 0.93 and a fold induction at 20 µM [2] of 1.72.

`NC[C@@H]1C[C@H]2C[C@@H]1CN2c1nccc(-c2ccc3ccccc3c2)n1` [1-{(1S,4S,5R)-2-[4-(2-naphthyl)pyrimidin-2-yl]-2-azabicyclo[2.2.1]hept-5-yl}methanamine] gave a fold induction at 2 µM [1] of 1.1.

In the case of `CS(=O)(=O)N[C@@H]1CCN(c2nccc(-c3ccc4ccccc4c3)n2)C1` [N-{(3R)-1-[4-(2-naphthyl)pyrimidin-2-yl]pyrrolidin-3-yl}methanesulfonamide], the fold induction at 2 µM [1] is reported as 1.26 and the fold induction at 20 µM [2] is reported as 0.82.

`CN1CCN(C[C@@H]2CCN(c3nccc(-c4ccc5ccccc5c4)n3)C2)CC1` [2-{(3S)-3-[(4-methylpiperazin-1-yl)methyl]pyrrolidin-1-yl}-4-(2-naphthyl)pyrimidine] showed a fold induction at 2 µM [1] of 1.8.

Work on `NCC1CCN(c2nccc(-c3ccc4ccccc4c3)n2)CC1` [({1-[4-(2-naphthyl)pyrimidin-2-yl]piperidin-4-yl}methyl)amine] yielded an EC50 of 1980 nM, a fold induction at 2 µM [1] of 2.23 and a fold induction at 20 µM [2] of 0.143. For the same molecule, the “A = MAX FOLD Induction/DMSO CONTROL” value was 3.390 fold.

In the case of `CNC[C@@H]1CCN(c2nccc(-c3ccc4ccccc4c3)n2)C1` [N-methyl-1-{(3S)-1-[4-(2-naphthyl)pyrimidin-2-yl]pyrrolidin-3-yl}methanamine], the EC50 is reported as 2350 nM, the fold induction at 2 µM [1] is reported as 2.74 and the fold induction at 20 µM [2] is reported as 0.503. For the same molecule, the “A = MAX FOLD Induction/DMSO CONTROL” value was 4.773 fold.

For `CCN(CC)CC1CCN(c2nccc(-c3ccc4ccccc4c3)n2)C1` (centres unmarked) [N-ethyl-N-({1-[4-(2-naphthyl)pyrimidin-2-yl]pyrrolidin-3-yl}methyl)ethanamine], the fold induction at 2 µM [1] was 1.58.

Molecule `CCCN1CCC(N(C)c2nccc(-c3ccc4ccccc4c3)n2)CC1` [N-methyl-4-(2-naphthyl)-N-(1-propylpiperidin-4-yl)pyrimidin-2-amine] has a fold induction at 2 µM [1] of 1.74.

`c1ccc2cc(-c3ccnc(N4CCC5(CC4)OCCO5)n3)ccc2c1` [8-[4-(2-naphthyl)pyrimidin-2-yl]-1,4-dioxa-8-azaspiro[4.5]decane] showed a fold induction at 2 µM (read-out: B = TCF ACTIVITY/DMSO CONTROL Fold induction @ 2.0 uM) of 1.5 and a fold induction at 20 µM (read-out: C = TCF ACTIVITY/DMSO CONTROL Fold induction @ 20.0 uM) of 1.74.

With `c1ccc2cc(-c3ccnc(N4CC5CCNC5C4)n3)ccc2c1` (centres unmarked) [5-(4-naphthalen-2-ylpyrimidin-2-yl)octahydropyrrolo[3,4-b]pyrrole] the fold induction at 2 µM [1] was 1.5.

In the case of `CC(C)(C)OC(=O)N1CC[C@@H](Nc2nccc(-c3ccc4ccccc4c3)n2)C1` [tert-butyl (3R)-3-{[4-(2-naphthyl)pyrimidin-2-yl]amino}pyrrolidine-1-carboxylate], the fold induction at 2 µM [1] is reported as 2.38, the fold induction at 20 µM [2] is reported as 0.01 and the “A = MAX FOLD Induction/DMSO CONTROL” value is reported as 0.800 fold.
